The values that follow are results of earlier work, collected in patent US11224220B2, “Surfactant composition based on glycine betaine amide salts, process for preparing same and uses thereof” (SURFACTGREEN, priority 2018, dated 2022).

For this data set the following is noted: prior art values (U.S. Pat. No. 7,829,521; Green Chem., 2008, 10, 310-320; WO 2013/188508 Table 5).

As for `CCCCCCCCCCCCNC(=O)C[N+](C)(C)C` [glycine betaine laurylamide], the surface tension is 50 mN/m.
As for `CCCCCCCCCCCCNC(=O)C[N+](C)(C)C` [pure glycine betaine amide], the surface tension is given as 38 mN/m.
